Data on five molecules can be found in publication PMC9316317, “Reducing the Kidney Uptake of High Contrast CXCR4 PET Imaging Agents via Linker Modifications” (Pharmaceutics, 2022).

Where two headings read alike, the source gives them in different places. Where a SMILES comes first, the peptide text is derived from it. Bridges are numbered along the chain shown (N, C = ends). Side-chain parts run from the residue outwards. [ ]: non-standard residue; d: D form. The star is where a group is joined. DOTA = O=C(O)CN1CCN(CC(=O)O)CCN(CC(=O)*)CCN(CC(=O)O)CC1; 2Nal = N[C@@H](Cc1ccc2ccccc2c1)C(=O)O; Lys(iPr) = CC(C)NCCCC[C@H](N)C(=O)O

One series can be described thus: in vivo. Conditions: male, NOD.Cg-Rag1tm1Mom Il2rgtm1Wjl/SzJ (NRG), mouse, iv, total radioactivity.
The conditions of series [1]: quoted in discussion, approximate; ammonium salt of N-methylpiperidine; carboxylate in aspartate; no reference given; cited from earlier work. The source says:
The placement of three consecutive charged amino acids may increase the pKa of the neighboring carboxylate due to unfavorable electrostatic repulsions. The sulfonate has a lower pKa than a carboxylate (approximately −1.7 versus 1.9 in aspartate), and as such, may be able to better retain its negative charge, thereby increasing the excretion of the radiotracer from the kidneys. However, there was no difference in LogD7.4 values between [^68Ga]Ga-BL02 and [^68Ga]Ga-BL31. The increased capacity to hold a negative cha ...

Series [2] relates to CXCR4-expressing Daudi xenograft mice. Particulars: mouse, in vivo, iv.
Procedure: (§1) Male NOD.Cg-Rag1tm1Mom Il2rgtm1Wjl/SzJ (NRG) mice were obtained from an in-house breeding colony at the Animal Resource Centre of the BC Cancer Research Centre, Vancouver, Canada. Mice (6–10 weeks old, 25–30 g weight) were subcutaneously inoculated with 5 × 10^6 Daudi cells (100 μL; 1:1 ratio of PBS/Matrigel) on the left flank.
(§2) Additional groups of mice received 7.5 µg (0.25–0.3 mg/kg) LY2510924 as a blocking control i.p. 15 min before radiotracer injection, and euthanized 1 h p.i. Tissues were harvested, washed in PBS, blotted dry, and weighed, and radioactivity was counted on a Hidex AMG Automatic Gamma Counter. The counts were decay corrected, converted to absolute units using a calibration curve, and expressed as percent injected dose per gram of tissue (%ID/g).
The test system of another series is mCXCR4. Also on record: method as in PMID 29212254. Conditions: cited from earlier work.

Procedure for in vivo: as §1, §2

On to `CC(C)NCCCC[C@@H]1NC(=O)[C@H](Cc2ccc(O)cc2)NC(=O)[C@H](Cc2ccccc2)NC(=O)CC[C@H](C(=O)N[C@@H](CCCCNC(C)C)C(=O)N[C@@H](CCCCNC(=O)[C@@H](CCC(=O)O)NC(=O)[C@@H](CCC(=O)O)NC(=O)[C@@H](CCC(=O)O)NC(=O)CN2CCN(CC(=O)O)CCN(CC(=O)O)CCN(CC(=O)O)CC2)C(N)=O)NC(=O)CNC(=O)[C@H](Cc2ccc3ccccc3c2)NC(=O)[C@@H](CCCNC(=N)N)NC1=O` [[68Ga]Ga-BL20, metal not drawn] (FY[Lys(iPr)][dR][2Nal]G[dE][Lys(iPr)]K([dE-dE-dE-DOTA])-NH2; lactam N-7), for which the tissue uptake (commonly the share of the injected amount in each gram of the tissue) at 1 h in the series “in vivo” (Tumor uptake (Daudi xenograft)) was found to be 0.59 %ID/g.
For `N[C@@H](CC(=O)O)C(=O)O` [aspartate], the pKa (as a rule, the pH at which an ionisable group is half protonated) in series [1] is roughly 1.9.
Regarding `CN1CCCCC1` [N-methylpiperidine], the pKa result in series [1] is listed as “approximately 10.08”.
In series [2] (1 h), `CC(C)NCCCC[C@@H]1NC(=O)[C@H](Cc2ccc(O)cc2)NC(=O)[C@H](Cc2ccccc2)NC(=O)CC[C@H](C(=O)N[C@@H](CCCCNC(C)C)C(=O)N[C@@H](CCCCNC(=O)[C@H](CCC(=O)O)NC(=O)[C@H](CCC(=O)O)NC(=O)[C@H](CCC(=O)O)NC(=O)CN2CCN(CC(=O)O)CCN(CC(=O)O)CCN(CC(=O)O)CC2)C(N)=O)NC(=O)CNC(=O)[C@H](Cc2ccc3ccccc3c2)NC(=O)[C@@H](CCCNC(=N)N)NC1=O` [[68Ga]Ga-BL02, metal not drawn] (FY[Lys(iPr)][dR][2Nal]G[dE][Lys(iPr)]K([Glu-Glu-Glu-DOTA])-NH2; lactam N-7 (inferred); C-terminus assumed) yielded a Blood uptake of 0.27 ± 0.06 %ID/g, a Liver uptake of 0.57 ± 0.07 %ID/g, a Lung uptake of 0.45 ± 0.08 %ID/g and a Spleen uptake of 0.47 ± 0.22 %ID/g. In series [2] (2 h), the Kidney uptake is listed as 3.40 ± 0.51 %ID/g, the Liver uptake is listed as 0.54 ± 0.04 %ID/g and the Lung uptake worked out at 0.27 ± 0.09 %ID/g. Besides, the tissue uptake at 1 h in “in vivo” (Kidney uptake) was found to be 3.81 ± 0.86 %ID/g.
Regarding LY2510924, the “decrease in affinity to mCXCR4 as compared to hCXCR4” value with mCXCR4 was greater than 1000 fold.
